The values below come from PubChem BioAssay (NCI).

Structures are written as SMILES.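 Tested at 5 concentrations; 48 h exposure; 96-well plates; endpoints linearly interpolated, else capped at highest concentration. Here, GI50 denotes the concentration required for 50% inhibition of growth. TGI marks complete inhibition of growth.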

Some test systems named below: A549 NSCLC; EKVX NSCLC; HCC-2998 colon; K-562 leukemia; KM12 colon; NCI-H522 lung; NCI/ADR-RES ovarian; SN12C renal; SNB-75 CNS; UO-31 renal.
Assay in all cases: NCI anticancer screen, dose series, 48 h

On to `CCCCCC(O)C1C(=O)OC(C)C(O)/C=C/C=C/C=C/C=C\C=C(\C)C(O)CC(O)CC(O)CC(O)CC(O)CC(O)CC1O` (stereo not drawn), for which the GI50 with A549 NSCLC, in the assay with EKVX NSCLC, in the assay on HCC-2998 colon, in the assay with K-562 leukemia, in the assay with KM12 colon and with NCI-H522 lung was greater than 100000 nM throughout. The GI50 is greater than 100000 nM in the assay with NCI/ADR-RES ovarian, greater than 100000 nM in the assay with SN12C renal, greater than 100000 nM in the assay on SNB-75 CNS and greater than 100 µM with UO-31 renal. For the same molecule, the TGI in the assay on A549 NSCLC, in the assay on EKVX NSCLC, in the assay on HCC-2998 colon, in the assay with K-562 leukemia, in the assay on KM12 colon and in the assay on NCI-H522 lung was greater than 100 µM throughout. Further, the TGI in the assay with NCI/ADR-RES ovarian, with SN12C renal, in the assay on SNB-75 CNS and in the assay with UO-31 renal was greater than 100 µM throughout.

As for `C/C(=N\NC(=O)c1ccncc1)c1ccc2ccccc2c1O`, the TGI in the assay on A549 NSCLC was greater than 100 µM; with EKVX NSCLC, greater than 100 µM; with HCC-2998 colon, 53.8 µM; in the assay with K-562 leukemia, greater than 100 µM; in the assay on KM12 colon, 60.8 µM; in the assay with NCI-H522 lung it was 12.4 µM. The TGI with NCI/ADR-RES ovarian was greater than 54.3 µM; in the assay on SN12C renal, 40.9 µM; with SNB-75 CNS, greater than 43.8 µM; in the assay on UO-31 renal it was 38.5 µM.

As to `CC(C)CCOc1ccc(-c2n[nH]c(C(F)(F)F)c2-c2cncc(C#N)c2)c(O)c1`, the GI50 in the assay on A549 NSCLC was 2240 nM; in the assay with EKVX NSCLC it was 2280 nM; in the assay on HCC-2998 colon it was 3050 nM; with K-562 leukemia, 1870 nM; with KM12 colon, 3330 nM; in the assay on NCI-H522 lung, 1800 nM. The GI50 in the assay on NCI/ADR-RES ovarian was 2200 nM; in the assay with SN12C renal, 2340 nM; in the assay with SNB-75 CNS, 2770 nM; with UO-31 renal, 1.98 µM. The TGI in the assay with A549 NSCLC was 12 µM; with EKVX NSCLC it was 13.2 µM; with HCC-2998 colon, 24.3 µM; in the assay with K-562 leukemia it was greater than 100 µM; in the assay with KM12 colon, greater than 100 µM; in the assay with NCI-H522 lung, 10 µM. Moreover, the TGI came to 7.35 µM with NCI/ADR-RES ovarian, 15.9 µM with SN12C renal, 14.6 µM in the assay on SNB-75 CNS and 7.61 µM with UO-31 renal.

Take `CC(=O)c1c(C(F)(F)F)n([O-])c2ccc(Cl)cc2[n+]1=O`: the GI50 was 2500 nM in the assay on A549 NSCLC; 818 nM in the assay with EKVX NSCLC; 1030 nM with HCC-2998 colon; 509 nM with K-562 leukemia; 364 nM with KM12 colon; 2500 nM with NCI-H522 lung. The GI50 in the assay with NCI/ADR-RES ovarian was 3400 nM; with SN12C renal, 990 nM; with SNB-75 CNS, 1690 nM; in the assay on UO-31 renal, 1.92 µM. Moreover, the TGI was 11.6 µM in the assay with A549 NSCLC; 2.29 µM in the assay on EKVX NSCLC; 2.41 µM with HCC-2998 colon; 3.52 µM in the assay with K-562 leukemia; 2.39 µM in the assay on KM12 colon; 9.62 µM in the assay on NCI-H522 lung. The results for the TGI in the assay with NCI/ADR-RES ovarian, in the assay with SN12C renal and in the assay with SNB-75 CNS were greater than 23.1 µM, 2.52 µM and 8.38 µM, respectively.

Turning to `CC(=O)Nc1ccc(Sc2ccc([N+](=O)[O-])o2)cc1`, the GI50 in the assay on A549 NSCLC is 6370 nM; in the assay with EKVX NSCLC it was 4460 nM; in the assay with HCC-2998 colon, 1900 nM; in the assay with K-562 leukemia, 2220 nM; with KM12 colon, 2840 nM; with NCI-H522 lung, 214 nM. Moreover, the GI50 in the assay on NCI/ADR-RES ovarian was 2880 nM; with SN12C renal, 2960 nM; in the assay with SNB-75 CNS it was 2780 nM; in the assay with UO-31 renal, 3.9 µM. In addition, the TGI was 23.3 µM in the assay on A549 NSCLC; 25.2 µM with EKVX NSCLC; 3.52 µM in the assay with HCC-2998 colon; greater than 30.8 µM in the assay on K-562 leukemia; 9.08 µM with KM12 colon; 0.711 µM with NCI-H522 lung. Also, the TGI in the assay with NCI/ADR-RES ovarian stood at 11.3 µM; with SN12C renal, 10.7 µM; in the assay on SNB-75 CNS, 12.8 µM; in the assay on UO-31 renal, 13 µM.

`NC(CSC(c1ccccc1)(c1ccccc1)c1ccc(Cl)cc1)C(=O)O` (stereo not drawn): the GI50 in the assay with A549 NSCLC is 468 nM; in the assay with EKVX NSCLC, 342 nM; in the assay on HCC-2998 colon it was 276 nM; with K-562 leukemia it was 209 nM; in the assay on KM12 colon, 322 nM; in the assay on NCI-H522 lung, 128 nM. The GI50 in the assay on NCI/ADR-RES ovarian was 712 nM; in the assay on SN12C renal, 540 nM; in the assay with UO-31 renal, 6.13 µM. Besides, the TGI in the assay with A549 NSCLC is greater than 62 µM; in the assay on EKVX NSCLC it was greater than 33.9 µM; with HCC-2998 colon it was 2.77 µM; in the assay on K-562 leukemia, greater than 57.6 µM; in the assay on KM12 colon it was 15.1 µM; with NCI-H522 lung, 3.71 µM. Further, the TGI in the assay with NCI/ADR-RES ovarian was 7.3 µM; in the assay on SN12C renal it was greater than 57.8 µM; in the assay with SNB-75 CNS it was 1.85 µM; in the assay with UO-31 renal, greater than 83.4 µM.

As to `COc1ccccc1-n1c(-c2cc(O)ccc2C)cn2c3c(=O)[nH]c(=O)n(C)c3nc12`, the GI50 with A549 NSCLC was 17400 nM; with EKVX NSCLC, 10100 nM; in the assay with HCC-2998 colon it was greater than 100000 nM; in the assay with K-562 leukemia it was 310 nM; in the assay with KM12 colon, greater than 100000 nM; with NCI-H522 lung, 1790 nM. The GI50 with NCI/ADR-RES ovarian was greater than 100000 nM; with SN12C renal, 4850 nM; with SNB-75 CNS, 129 nM; in the assay on UO-31 renal, 9.33 µM. Also, the TGI in the assay with A549 NSCLC, in the assay on EKVX NSCLC, in the assay with HCC-2998 colon, in the assay on K-562 leukemia, in the assay on KM12 colon and with NCI-H522 lung was greater than 100 µM throughout. Further, the TGI in the assay with NCI/ADR-RES ovarian was greater than 100 µM; in the assay on SN12C renal, greater than 100 µM; with SNB-75 CNS it was 1.12 µM; in the assay on UO-31 renal, greater than 100 µM.
